In patent US6656911B2, “Serine protease inhibitors” (Cortech, Inc., priority 1994, dated 2003):

What was measured:
[1] = target: T1, human neutrophil elastase (HNE) (Homo sapiens, UniProt P08246); experiment: HNE Ki of CE compounds, tested as described in WO 96/16080; type: biochemical; conditions: read-out: HNE Ki
T1 sequence (P08246 30-267): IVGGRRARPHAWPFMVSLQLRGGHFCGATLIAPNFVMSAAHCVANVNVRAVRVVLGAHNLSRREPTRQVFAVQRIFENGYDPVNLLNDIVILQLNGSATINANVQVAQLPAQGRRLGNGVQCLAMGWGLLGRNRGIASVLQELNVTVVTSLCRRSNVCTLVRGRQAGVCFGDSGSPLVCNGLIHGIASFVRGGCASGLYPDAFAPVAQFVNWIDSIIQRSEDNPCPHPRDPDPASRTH

[2] = system: polymorphoneucleocyte (PMN); experiment: Extracellular Matrix (ECM) degradation assay; type: cell-based; conditions: PMN's stimulated with opsonized zymosan, 4 hr at 37° C.; for ECM DATA % Inhibition 1 uM / inhibition at 1 µM: 1 uM inhibitor; for ECM DATA % Inhibition 5 uM / inhibition at 5 µM: 5 uM inhibitor
Experimental: Forty-eight well plates on which extracellular matrix had been established were supplied to Cortech by Dr. Simon's group at the State University of New York at Stony Brook. Briefly, the plates were prepared as follows: R22 rat heart smooth muscle cells were seeded into wells at 2.5×10^4 cells/cm. The cells were fed every 4 days with Eagle's Minimal Essential Media supplemented with fetal bovine serum, tryptose phosphate broth, cefotaxime and streptomycin. At confluence, daily supplements of 50 ug/ml ascorbic acid were added for 8 to 10 days during the synthesis of the ECM layer. [^35S]sulfate and [^3H]proline were also added to the culture media to incorporate radiolabel into the matrix. Cells were later lysed with 25 mM NH4OH. Plates were washed three times with water and once with phosphate-buffered saline containing 0.02% NaN3. Plates were stored at 4° C. until use.
Matrix degradation assays were performed as follows: 0.40 ml of Hanks balance salt solution (HBSS) containing 1 or 5 uM test inhibitor (final concentration; diluted from DMSO stock solution; <2% DMSO final concentration) was added to the wells. After 30 minutes, 50 ul of a polymorphoneucleocyte (PMN) suspension was added resulting in 5×10^5 cells/well. PMN's were stimulated with opsonized zymosan. Zymosan particles were washed and suspended in 0.5 ml human serum for 1 hr at 37° C., vortexing every 15 min. The particles were then washed three times with HBSS and added to wells at a ratio of 10 particles/PMN in a volume of 50 ul. After a 4 hr incubation at 37° C., a 100 ul aliquot of the supernatant was withdrawn for scintillation counting. Following removal of the remaining supernatant, the residual ECM was solubilized with 0.5 ml 2M NaOH. The amount of tritium in this solubilized ECM was accessed by scintillation. ECM degradation data are expressed as (soluble counts released/total ECM counts)—(basal counts released without PMN's/total ECM counts).

| Compound | Ki [1] [nM] | ECM DATA % Inhibition 1 uM [2] [%] | ECM DATA % Inhibition 5 uM [2] [%] | inhibition at 1 µM [2] [%] | inhibition at 5 µM [2] [%] |
| --- | --- | --- | --- | --- | --- |
| 2-Oxo-5-methyl-1,4-(2-phenyl-1-thiophenodiazepine)-N-[1-(2-[5-(3-methylbenzyl)-1,3,4-oxadiazolyl]carbonyl)-2-(S)-methylpropyl]acetamide [CE2245] | 24 | 34.7 | 39.3 | – | – |
| Cc1cccc(Cc2nnc(C(=O)[C@@H](NC(=O)Cn3c(-c4ccc(F)cc4)ncc(NC(=O)OCc4ccccc4)c3=O)C(C)C)o2)c1 [CE2095, 2-[5-[(Benzyloxycarbonyl)amino]-6-oxo-2-(4-fluorophenyl)-1,6-dihydro-1-pyrimidinyl]-N-[1-(2-[5-(3-methylbenzyl)-1,3,4-oxadiazolyl]carbonyl)-(S)-2-methylpropyl]acetamide] | 0.21 | – | – | 60.4 | 55.6 |
| Cc1cccc(Cc2nnc(C(=O)[C@@H](NC(=O)CN3C(=O)N(Cc4ccccc4)C(=O)[C@H]3Cc3ccccc3)C(C)C)o2)c1 [CE2151, 1-Benzyl-4-(R)-benzyl-2,5-imidazolidinedione-N-[1-(2-[5-(3-methylbenzyl)-1,3,4-oxadiazolyl]carbonyl)-2-(S)-methylpropyl]acetamide] | 59 | – | – | 14.2 | -8.3 |
| Cc1cccc(Cc2nnc(C(=O)[C@@H](NC(=O)CN3C(=O)N[C@@H](Cc4ccccc4)C3=O)C(C)C)o2)c1 [CE2154, 5-(S)-Benzyl-2,4-imidazolidinedione-N-[1-(2-[5-(3-methylbenzyl)-1,3,4-oxadiazolyl]carbonyl)-2-(S)-methylpropyl]acetamide] | 10 | – | – | 54.6 | 65.4 |
| Cc1cccc(Cc2nnc(C(=O)C(NC(=O)CN3C(=O)[C@@H](Cc4ccccc4)N(CCN4CCOCC4)C3=O)C(C)C)o2)c1 (stereo partly drawn) [CE2173, 1-(3-Morpholinoethyl)-5-(R)-benzyl-2,4-imidazolidinedione-N-[1-(2-[5-(3-methylbenzyl)-1,3,4-oxadiazolyl]carbonyl)-2-(R,S)-methylpropyl]acetamide] | 6.5 | 35.9 | 47.1 | – | – |
| Cc1cccc(Cc2nnc(C(=O)C(NC(=O)CN3C(=O)C(c4ccccc4)N(CCN4CCOCC4)C3=O)C(C)C)o2)c1 [CE2192, 1-(N-Morpholinoethyl)-5-(R,S)-phenyl-2,4-imidazolidinedione-N-[1-(2-[5-(3-methylbenzyl)-1,3,4-oxadiazolyl]carbonyl)-2-(R,S)-methylpropyl]acetamide] | 7.3 | – | – | 40.8 | 49.7 |
| CCCCc1nnc(C(=O)C(NC(=O)CN2C(=O)C(N)N=C(c3ccccn3)c3ccccc32)C(C)C)o1 [CE2218, (R,S)-3-Amino-2-oxo-5-(2-pyridyl)-1,4-benzodiazepine-N-[1-(2-[5-(3-methylpropyl)-1,3,4-oxadiazolyl]carbonyl)-2-(R,S)-methylpropyl]acetamide] | 1.6 | 30.5 | 33.15 | – | – |
| CC1=NC(N)C(=O)N(CC(=O)NC(C(=O)c2nnc(Cc3cccc(C)c3)o2)C(C)C)c2ccccc21 [CE2226, (R,S)-3-Amino-2-oxo-5-methyl-1,4-benzodiazepine-N-[1-(2-[5-(3-methylbenzyl)-1,3,4-oxadiazolyl]carbonyl)-2-(R,S)-methylpropyl]acetamide] | 10.3 | – | – | 27.6 | 52.2 |
| Cc1cccc(Cc2nnc(C(=O)C(NC(=O)CN3C(=O)C(N)N=C(c4ccccc4Cl)c4cc(Cl)ccc43)C(C)C)o2)c1 [CE2229, (R,S)-3-Amino-2-oxo-5-(2-chlorophenyl)-1,4-(2′-chlorobenzodiazepine)-N-[1-(2-[5-(3-methylbenzyl)-1,3,4-oxadiazolyl]carbonyl)-2-(R,S)-methylpropyl]acetamide] | 9.5 | 31.25 | 48.2 | – | – |
| COc1cc2c(cc1OC)N(CC(=O)NC(C(=O)c1nnc(Cc3cccc(C)c3)o1)C(C)C)C(=O)C(N)N=C2C [CE2235, (R,S)-3-Amino-2-oxo-5-methyl-1,4-(2′,3′-dimethoxybenzodiazepine)-N-[1-(2-[5-(3-methylbenzyl)-1,3,4-oxadiazolyl]carbonyl)-2-(R,S)-methylpropyl]acetamide] | 9.5 | 19.75 | 13.25 | – | – |
| Cc1ccc(C2=NCC(=O)N(CC(=O)N[C@H](C(=O)c3nnc(Cc4cccc(C)c4)o3)C(C)C)c3ccccc32)cc1 [CE2242, 2-Oxo-5-phenyl-1,4-(4′-methylbenzodiazepine)-N-[1-(2-[5-(3-methylbenzyl)-1,3,4-oxadiazolyl]carbonyl)-2-(S)-methylpropyl]acetamide] | 27 | 29.4 | 40.7 | – | – |
| COc1ccccc1C1=NCC(=O)N(CC(=O)N[C@H](C(=O)c2nnc(Cc3cccc(C)c3)o2)C(C)C)c2ccccc21 [CE2250, 2-Oxo-5-(2-methoxyphenyl)-1,4-benzodiazepine-N-[1-(2-[5-(3-methylbenzyl)-1,3,4-oxadiazolyl]carbonyl)-2-(S)-methylpropyl]acetamide] | 6.9 | – | – | 27.4 | 48.6 |
| Cc1cccc(Cc2nnc(C(=O)[C@@H](NC(=O)CN3C(=O)N[C@H](Cc4ccc(O)cc4)C3=O)C(C)C)o2)c1 [CE2255, 4-(R)-(4-Hydroxybenzyl)-2,5-imidazolidinedione-N-[1-(2-[5-(3-methylbenzyl)-1,3,4-oxadiazolyl]carbonyl)-2-(S)-methylpropyl]acetamide] | 18 | 20.7 | 42 | – | – |
| (R,S)-3-Amino-2-oxo-5-methyl-1,4-(1-thiophenodiazepine)-N-[1-(2-[5-(3-methylbenzyl)-1,3,4-oxadiazolyl]carbonyl)-2-(S)-methylpropyl]acetamide [CE2236] | 7.1 | 31.9 | 31.75 | – | – |

The next lines start with results.

| Ki [1] [nM] | Compound | ECM DATA % Inhibition 1 uM [2] [%] | ECM DATA % Inhibition 5 uM [2] [%] | inhibition at 1 µM [2] [%] | inhibition at 5 µM [2] [%] |
| --- | --- | --- | --- | --- | --- |
| 0.082 | Cc1cccc(Cc2nnc(C(=O)[C@@H](NC(=O)[C@@H]3CCCN3C(=O)[C@@H](NC(=O)c3cccnc3)C(C)C)C(C)C)o2)c1 [CE2161, (Pyridyl-3-carbonyl)-L-valyl-N-[1-(2-[5-(3-methylbenzyl)-1,3,4-oxadiazolyl]carbonyl)-2-(S)-methylpropyl]-L-prolinamide] | – | – | 25 | 55 |
| 85 | Cc1cccc(Cc2nnc(C(=O)C(NC(=O)CN3C(=O)N(Cc4ccccc4)C(=O)[C@@H]3Cc3ccccc3)C(C)C)o2)c1 (stereo partly drawn) [CE2191, 1-Benzyl-4-(S)-benzyl-2,5-imidazolidinedione-N-[1-(2-[5-(3-methylbenzyl)-1,3,4-oxadiazolyl]carbonyl)-2-(R,S)-methylpropyl]acetamide] | 29.35 | 30.5 | – | – |
| 8.7 | Cc1cccc(Cc2nnc(C(=O)[C@@H](NC(=O)CN3C(=O)NC(c4ccncc4)(N4C(=O)CCC4=O)C3=O)C(C)C)o2)c1 (stereo partly drawn) [CE2206, [4-(R,S)-(4-pyridyl)-4-(R,S)-N-succinimidyl-1-2,5-imidazolidinedione-N-[1-2-[5-(3-methylbenzyl)-1,3,4-oxadiazolyl]carbonyl)-2-(S)-methylpropyl]acetamide] | 47.4 | 62.3 | – | – |
| 796 | Cc1cccc(Cc2nnc(C(=O)[C@@H](NC(=O)Cn3c(-c4ccccn4)nc4ccccc43)C(C)C)o2)c1 [CE2234, 2-(2-Pyridyl)-benzimidazole-N-[1-(2-[5-(3-methylbenzyl)-1,3,4-oxadiazolyl]carbonyl)-2-(S)-methylpropyl]acetamide] | – | – | 39.7 | 35 |
| 30 | Cc1cccc(Cc2nnc(C(=O)[C@@H](NC(=O)CN3C(=O)N[C@H](c4ncc[nH]4)C3=O)C(C)C)o2)c1 [CE2257, 4-(R)-(2-Imidazolyl)-2,5-imidazolidinedione-N-[1-(2-[5-(3-methylbenzyl)-1,3,4-oxadiazolyl]carbonyl)-2-(S)-methylpropyl]acetamide] | 48.3 | 61.4 | – | – |
| 8.2 | (R,S)-3-Amino-2-oxo-5-methyl-1,4-(2′,3′-methylenedioxy-benzodiazepine)-N-[1-(2-[5-(3-methylbenzyl)-1,3,4-oxadiazolyl]carbonyl)-2-(R,S)-methylpropyl]acetamide [CE2225] | 30.85 | 43.45 | – | – |
